Data reported in ChEMBL document CHEMBL3882725, “Indazole derivatives as JNK inhibitors and compositions and methods related thereto” (2002).

molecular target: Mitogen-activated protein kinase 9 (Homo sapiens, UniProt P45984); experiment: Inhibition of His6-tagged JNK2 (unknown origin) assessed as reduction in c-Jun phosphorylation using GST-c-Jun (1 to 79 residues) and [gamma32P]ATP incubated for 1 hr by scintillation counting assay
Sequence (P45984 whole entry, the tested form may be a part): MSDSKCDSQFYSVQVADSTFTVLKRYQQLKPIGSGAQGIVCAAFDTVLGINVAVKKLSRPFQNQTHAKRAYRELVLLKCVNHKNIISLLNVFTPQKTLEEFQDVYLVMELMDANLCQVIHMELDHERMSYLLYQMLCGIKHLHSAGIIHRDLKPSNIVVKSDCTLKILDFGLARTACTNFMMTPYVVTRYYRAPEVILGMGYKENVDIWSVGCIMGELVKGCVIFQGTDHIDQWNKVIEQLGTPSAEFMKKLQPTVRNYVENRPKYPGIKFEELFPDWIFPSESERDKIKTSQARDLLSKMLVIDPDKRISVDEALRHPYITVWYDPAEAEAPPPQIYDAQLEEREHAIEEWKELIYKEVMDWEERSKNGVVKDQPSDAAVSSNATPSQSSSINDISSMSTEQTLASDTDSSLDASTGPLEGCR

Structure (SMILES) | IC50
COCC(=O)Nc1cccc(-c2n[nH]c3ccc(C(N)=O)cc23)c1 | 1 to 10 µM
O=C(Nc1cccc(-c2n[nH]c3ccc(-c4nc[nH]n4)cc23)c1)c1cccnc1 | 0.5 to 10 µM
NCCOc1cccc(-c2n[nH]c3ccc(-c4ncn[nH]4)cc23)c1 | ≤ 10 µM
CN(C)CCCOc1ccc(-c2n[nH]c3ccc(-c4nnn[nH]4)cc23)cc1 | 0.5 to 10 µM
CN(C)CCCNC(=O)c1ccc2[nH]nc(-c3cc4ccccc4o3)c2c1 | 1 to 10 µM
O=C(/C=C/c1ccccc1)Nc1cccc(-c2n[nH]c3ccc(-c4nc[nH]n4)cc23)c1 | 1 to 10 µM
CN(C)CCCOc1cccc(-c2n[nH]c3ccc(-c4nnn[nH]4)cc23)c1 | 0.5 to 10 µM
CC(C)CNC(=O)c1ccc2[nH]nc(-c3cc4ccccc4o3)c2c1 | 1 to 10 µM
O=C(NCc1ccc(F)cc1)c1cccc(-c2n[nH]c3ccc(-c4ncn[nH]4)cc23)c1 | 0.5 to 10 µM
C[C@H](NC(=O)c1cccc(-c2n[nH]c3ccc(-c4ncn[nH]4)cc23)c1)c1ccccc1 | 1 to 10 µM
O=C(NCC1CC1)c1cccc(-c2n[nH]c3ccc(-c4ncn[nH]4)cc23)c1 | 0.5 to 10 µM
c1ccc2oc(-c3n[nH]c4ccc(-c5nc[nH]n5)cc34)cc2c1 | 0.5 to 10 µM
C[C@@H](NC(=O)c1cccc(-c2n[nH]c3ccc(-c4ncn[nH]4)cc23)c1)c1ccccc1 | 0.5 to 10 µM
COCC(=O)Nc1cccc(-c2n[nH]c3ccc(-c4nn[nH]n4)cc23)c1 | 0.5 to 10 µM
COCCC(=O)Nc1cccc(-c2n[nH]c3ccc(-c4nn[nH]n4)cc23)c1 | 0.5 to 10 µM
Clc1ccc(/C=C/c2n[nH]c3ccc(-c4nc[nH]n4)cc23)cc1 | 1 to 10 µM
CC(=O)Nc1cccc(-c2n[nH]c3ccc(-c4ncn[nH]4)cc23)c1 | 1 to 10 µM
CCCC(=O)Nc1cccc(-c2n[nH]c3ccc(-c4nc[nH]n4)cc23)c1 | 0.5 to 10 µM
c1cc(OCCN2CCCC2)cc(-c2n[nH]c3ccc(-c4ncn[nH]4)cc23)c1 | 1 to 10 µM
c1cc(OCCCN2CCCCC2)cc(-c2n[nH]c3ccc(-c4ncn[nH]4)cc23)c1 | 0.5 to 10 µM
Cc1ccc(-c2n[nH]c3ccc(-c4nnc[nH]4)cc23)cc1 | 1 to 10 µM
CN(C)CC(=O)Nc1cccc(-c2n[nH]c3ccc(-c4nc[nH]n4)cc23)c1 | 0.5 to 10 µM
O=C(Nc1cccc(-c2n[nH]c3ccc(-c4nn[nH]n4)cc23)c1)c1cccnc1 | 0.5 to 10 µM
NC(=O)c1ccc2[nH]nc(-c3cccc(NC(=O)c4cccnc4)c3)c2c1 | 1 to 10 µM
O=C(CCN1CCCCC1)Nc1cccc(-c2n[nH]c3ccc(-c4nn[nH]n4)cc23)c1 | 0.5 to 10 µM
Clc1ccc(-c2n[nH]c3ccc(-c4nc[nH]n4)cc23)cc1Cl | 1 to 10 µM

Structure (SMILES) | IC50
CC(Oc1ccccc1)C(=O)Nc1cccc(-c2n[nH]c3ccc(-c4nn[nH]n4)cc23)c1 (stereo unspecified) | 0.5 to 10 µM
O=C(Nc1cccc(-c2n[nH]c3ccc(-c4nn[nH]n4)cc23)c1)c1ccco1 | 0.5 to 10 µM
CS(=O)(=O)Nc1cccc(-c2n[nH]c3ccc(-c4nnc[nH]4)cc23)c1 | 1 to 10 µM
COCCNc1cccc(-c2n[nH]c3ccc(C(N)=O)cc23)c1 | 1 to 10 µM
CN(C)CCOc1cccc(-c2n[nH]c3ccc(-c4ncn[nH]4)cc23)c1 | 1 to 10 µM
Fc1ccc(-c2n[nH]c3ccc(-c4nnc(-c5cccnc5)[nH]4)cc23)cc1 | 1 to 10 µM
CN(C)CCCOc1cccc(-c2n[nH]c3ccc(-c4ncn[nH]4)cc23)c1 | 1 to 10 µM
c1cc(OCCN2CCCCCC2)cc(-c2n[nH]c3ccc(-c4ncn[nH]4)cc23)c1 | 1 to 10 µM
CNC(=O)c1ccc2[nH]nc(-c3cc4ccccc4o3)c2c1 | 1 to 10 µM
Cc1ccc2[nH]nc(-c3ccc(F)cc3)c2c1 | ≤ 10 µM
COCCNC(=O)c1ccc2[nH]nc(-c3cc4ccccc4o3)c2c1 | 1 to 10 µM
CC(=O)O[C@@H](C)C(=O)Nc1cccc(-c2n[nH]c3ccc(C(N)=O)cc23)c1 | 0.5 to 10 µM
CC(C)NC(=O)c1ccc2[nH]nc(-c3cc4ccccc4o3)c2c1 | 1 to 10 µM
c1cc(-c2n[nH]c3ccc(-c4nnn[nH]4)cc23)ccc1OCCN1CCOCC1 | 0.5 to 10 µM
O=C(NCc1cccnc1)c1cccc(-c2n[nH]c3ccc(-c4ncn[nH]4)cc23)c1 | 0.5 to 10 µM
CN(C)Cc1nnc(-c2ccc3[nH]nc(-c4ccc(F)cc4)c3c2)[nH]1 | 0.5 to 10 µM
OC1CCN(Cc2nnc(-c3ccc4[nH]nc(-c5ccc(F)cc5)c4c3)[nH]2)CC1 | 1 to 10 µM
Clc1cccc(-c2n[nH]c3ccc(-c4ncn[nH]4)cc23)c1 | 1 to 10 µM
CC(Oc1ccccc1)C(=O)Nc1cccc(-c2n[nH]c3ccc(-c4nc[nH]n4)cc23)c1 (stereo unspecified) | 0.5 to 10 µM
CC(=O)NCCOc1cccc(-c2n[nH]c3ccc(-c4ncn[nH]4)cc23)c1 | 1 to 10 µM
CC(C)(C)NC(=O)c1cccc(-c2n[nH]c3ccc(-c4ncn[nH]4)cc23)c1 | 0.5 to 10 µM
COc1ccc(/C=C/c2n[nH]c3ccc(-c4nc[nH]n4)cc23)cc1 | 1 to 10 µM
Clc1ccccc1-c1n[nH]c2ccc(-c3ncn[nH]3)cc12 | 1 to 10 µM
Cc1ccc(/C=C/c2n[nH]c3ccc(-c4nnc[nH]4)cc23)cc1 | 1 to 10 µM
CC(C)(NC(=O)c1cccc(-c2n[nH]c3ccc(-c4ncn[nH]4)cc23)c1)c1ccccc1 | 0.5 to 10 µM
